ChEMBL document CHEMBL1157539, “Thousands of chemical starting points for antimalarial lead identification” (Nature, 2010)

Each compound was assayed on Plasmodium falciparum (assay: GSK_TCMDC: Inhibition of Plasmodium falciparum 3D7 in whole erythrocytes, using parasite LDH activity as an index of growth.). Settings: Plasmodium falciparum, 3D7.
Type: functional, organism-based

SMILES | XC50
CCOc1c(CNCCCNc2cc(O)c3ccccc3n2)cc(Br)cc1OC | 1160 nM
COC(=O)C(C)(C)Cc1c(SC(C)(C)C)c2cc(C(C)C)ccc2n1Cc1ccc(Cl)cc1 | 849 nM
CC1CCN(C(=O)CSc2nc(-c3ccc(C(C)C)cc3)no2)CC1 | 1350 nM
CNC(=O)c1cnc(Nc2ccc(N3CCN(C)CC3)c(C)c2)nc1NC | 869 nM
O=C(Nc1ccccc1)c1cccc(Nc2nccc(Nc3ccc(Oc4ccccc4)cc3)n2)c1 | 1550 nM
CN1CCN(CC(=O)Nc2cccc(-c3ccc(-c4nc5cc(C(F)(F)F)ccc5[nH]4)cc3)c2)CC1 | 520 nM
COc1cccc2cc(C(=O)N[C@@H](CC(C)C)C(=O)NC(/C=N/NC(=O)c3ccccc3)CCc3ccccc3)oc12 (stereo partly drawn) | 577 nM
CSc1ccc(C[C@@H](C)NC[C@H](O)c2cccc(Cl)c2)cc1 | 940 nM
COc1cc2c(cc1OC)-c1cc(=Nc3c(C)cc(C)cc3C)n(C)c(=O)n1CC2 | 1110 nM
CCNc1cc(C(=O)N[C@@H](Cc2ccccc2)[C@H](O)CNCc2cc(C#N)ccc2OC)cc(N2CCCC2=O)c1 | 1230 nM
COc1cc2cc(Cc3cnc(N)nc3N)ccc2c(OC)c1OC | 239 nM
Cc1nc(C)c(-c2ccc(S(=O)(=O)c3ccc(Cl)cc3)cc2)c(O)c1Br | 38 nM
NC(=O)c1ccccc1Nc1nc(Nc2cccc(N3CCN(CCO)CC3)c2)ncc1Cl | 39.6 nM
CC(C)c1ccc(N(CC(=O)N/N=C/c2ccc(C(F)(F)F)cc2)S(=O)(=O)c2ccc(C(F)(F)F)cc2)cc1 | 846 nM
O=C1c2ccccc2CCC1CCN1CC=C(c2c[nH]c3ccccc23)CC1 (stereo not drawn) | 697 nM
CCOc1ccc(N2C(N)=NC(N)=NC2(C)C)cc1 | 259 nM
Cc1nc(-c2cccc(NCc3ccccc3)c2)[nH]c1C | 863 nM
O=C(Cn1c(SCc2cccc(F)c2F)cc(=O)c2ccccc21)N(CCCn1ccnc1)Cc1ccc(-c2ccc(C(F)(F)F)cc2)cc1 | 1320 nM
Cc1cccc2nc(-c3cccc(-c4ccc(NC(=O)COc5ccccc5C(N)=O)cc4)c3)[nH]c12 | 889 nM
O=C(Nc1ccc(CCNCc2ccccc2)cc1)Nc1ccc(OC(F)(F)F)cc1 | 584 nM
CCn1ccc2c(N3CCCC3=O)cc(C(=O)N[C@@H](Cc3ccccc3)[C@H](O)CNCc3cccc(OC)c3)cc21 | 588 nM
CCCc1cc(Cc2cnc(N)nc2N)ccc1OCCCCCC(=O)OCC | 495 nM
CCNC1=NC2=C(CC(C(C)(C)C)CC2)C2(CCC(C(C)(C)C)CC2)S1 (stereo not drawn) | 834 nM
NC(=O)C1Cc2ccccc2CN1CC(=O)Nc1ccccc1Sc1ccccc1 (stereo not drawn) | 68.4 nM
Cc1cc(Nc2cccc(C(F)(F)F)c2)nc(N)n1 | 790 nM

SMILES | XC50
O=C(/C=C/c1ccc(Cl)c(Cl)c1)NC1CCC(CN2CCC(Cc3c[nH]c4ccccc34)CC2)CC1 (stereo not drawn) | 888 nM
Cc1ccc(C)c(NC(=O)Nc2ccc(Nc3nc(C)cc(N4CCOCC4)n3)cc2)c1 | 978 nM
NCC(=O)Nc1cccc(Nc2nccc(-c3c(-c4cccc(NC(=O)c5ccccc5)c4)nn4ccccc34)n2)c1 | 432 nM
Cc1ccccc1C1CCN(C2CCC(NC(=O)C3=Cc4cc(Cl)ccc4OC3)CC2)CC1 (stereo not drawn) | 889 nM
Cc1cccc2nc(-c3cccc(-c4ccc(NC(=O)CN5CCOCC5)cc4)c3)[nH]c12 | 1050 nM
Cc1cc(CNCCCCCCCNCc2ccc(-c3ccccc3)cc2)ccc1O | 493 nM
Cn1nccc1C(=O)NCCNCc1cccc(-c2ccc(-c3nc4ccccc4[nH]3)cc2)c1 | 473 nM
CN1CCC(c2nc(N)no2)C1 (stereo not drawn) | 975 nM
O=C1Nc2cccc3c2C1(CCCCN1CCC(c2c(-c4ccc(F)cc4)[nH]c4ccccc24)CC1)CCC3 (stereo not drawn) | 1190 nM
Cc1noc(NC(=O)c2sc3ccccc3c2O)c1C | 852 nM
COc1ccc(CNc2nc(NCCc3ccccc3)c3cc(OC)c(OC)cc3n2)cc1OC | 180 nM
Oc1ccc(-c2nc3c4cc(I)ccc4c4ccc(I)cc4c3[nH]2)cc1 | 972 nM
Cn1ccnc1CCC(=O)Nc1ccc(Cl)cc1C(=O)Nc1ccc(Cl)cc1 | 1560 nM
COc1cc(CN2CCN(c3ccnc(N(C)C4CCN(C)CC4)n3)CC2)cc(Cl)c1O | 784 nM
COc1ccc(CN(C)CCCOc2ccc(NC(=O)c3cccc4c(=O)c5cccc(F)c5[nH]c34)cc2)cc1OC | 637 nM
CC(C)c1ccc(NC(=O)c2ccc(CN3CCCN(Cc4cccc(Cl)c4)CC3)cc2)cc1 | 1160 nM
COc1ccc2nc(-c3cc(-c4ccc(NC(=O)CN5CCOCC5)cc4)cnc3N)[nH]c2c1 | 616 nM
CN(C)CCN1CCN(Cc2ccc(-c3cccc(-c4nc5ccccc5[nH]4)c3)cc2)CC1 | 199 nM
c1ccc2sc(Sc3ncnc4sccc34)nc2c1 | 734 nM
Cc1ccc(C(=O)Nc2cc(C(F)(F)F)cc(C(F)(F)F)c2)cc1[N+](=O)[O-] | 927 nM
O=[N+]([O-])c1cccc(S(=O)(=O)N2CCN(CC(O)COc3ccc(-c4ccccc4)cc3)CC2)c1 (stereo not drawn) | 1360 nM
Cc1ncc([N+](=O)[O-])n1CCOC(=O)NC(Nc1ccc(Br)cc1)C(Cl)(Cl)Cl (stereo not drawn) | 962 nM
O=C(Nc1ccc(OC(F)(F)F)cc1)NC1CCN(c2ccnc3ccccc23)CC1 | 297 nM
COC(=O)c1cccc(CNCc2ccc(-c3ccc(-c4nc5cc(C(F)(F)F)ccc5[nH]4)s3)cc2)c1 | 157 nM
O=S(=O)(Nc1ccc(-c2ccc(CN3CCCC3)cc2)cc1)c1cccc2cccnc12 | 1020 nM

SMILES | XC50
Nc1c2c(nc3ccc(C(=O)Nc4cc(I)c(O)c(I)c4)cc13)CCCC2 | 1010 nM
Cc1ccccc1C(O)CNc1ccnc(Nc2cccc(C#N)c2)n1 (stereo not drawn) | 875 nM
Oc1ccccc1N1CCN(c2ccc(-c3nc4ccccc4[nH]3)cn2)CC1 | 1130 nM
CC(C)CC(C)NC(=O)C1Cc2c([nH]c3ccc(F)cc23)C2(CCN(Cc3ccccc3)CC2)N1 (stereo not drawn) | 970 nM
Cc1ccc(-c2ccn(Cc3ccc(OCc4ccccc4)cc3)n2)cn1.Cc1ccc(-c2ccnn2Cc2ccc(OCc3ccccc3)cc2)cn1 | 674 nM
Cc1c(C(=O)N(C)C)sc2c1c(=O)n(Cc1ccccc1)c(=O)n2CC(=O)Nc1ccccc1F | 657 nM
Cc1cc(N2CCC(C)CC2)nc2cc(O)ccc12 | 1180 nM
CC(C)c1ccc(-c2noc(SCC(=O)N3CCCCC3C)n2)cc1 (stereo not drawn) | 1670 nM
COc1ccc(NC(=O)CSc2nc(-c3ccccc3Cl)ns2)cc1 | 1040 nM
NCc1cccc(-c2ccc3ccnc(N)c3c2)c1 | 168 nM
CCCCCC(C)NC[C@@H](O)[C@H](Cc1ccccc1)NC(=O)c1cc(NCC)cc(N2CCCCS2(=O)=O)c1 (stereo partly drawn) | 398 nM
COc1ccc(S(=O)(=O)NCC2CCCN(CCCCCNC(=O)/C=C/c3ccc(Cl)c(Cl)c3)C2)cc1 (stereo not drawn) | 1060 nM
O=C(c1ccc(Cl)cc1Cl)N1CCCC(C(F)(F)F)C1 (stereo not drawn) | 952 nM
CN(N=Cc1ccccc1)C(=N)NCCCC#Cc1cccc(CN2CCCC2)c1 | 1790 nM
Fc1ccc2[nH]c(-c3ccc(-c4ccc(CN5CCN(c6ccncc6)CC5)cc4)cc3)nc2c1 | 251 nM
CC(C)c1sc(-c2ccc(C(C)(C)C)cc2)nc1C(=O)NCCCN1CCCC1=O | 672 nM
COc1ccc(-c2cnc(N)c(-c3ccc(O)c(OC)c3)c2)cn1 | 875 nM
CCCC(C)NC(=O)[C@H]1CNCCN1C(=O)CCCc1ccccc1 (stereo partly drawn) | 186 nM
O=C(N[C@@H](CC1CCCCC1)C(=O)NC1CCCCC1)c1ccc(O)c(-c2cccc(C(F)(F)F)c2)c1 | 747 nM
Cn1c(=O)n(C)c2cc(CNCCNc3ccnc4cc(Cl)ccc34)ccc21 | 140 nM
Cc1cc2ccc(-c3cccc(CN)c3)cc2nc1N | 758 nM
C=CCn1c(Sc2ccc(C#N)c([N+](=O)[O-])c2)nnc1-c1ccc(OC)cc1 | 795 nM
Cc1cc(N2CCN(C)CC2)nc2ccc(NC(=O)Cc3cccc(C(F)(F)F)c3)cc12 | 737 nM
Cc1ccc2c(OCCN3CCC(Cc4cc5c(cc4F)OCC(=O)N5)CC3)cc(F)cc2n1 | 631 nM
OCCN1CCN(Cc2ccc(-c3cccc(-c4nc5cc(F)ccc5[nH]4)c3)cc2)CC1 | 608 nM

SMILES | XC50
CN1CC=C(c2c[nH]c3ccc(Oc4ccccc4)cc23)CC1 | 253 nM
Cc1cc(Cl)c(S(=O)(=O)N2CCc3ccccc32)cc1OCC(=O)NC1CCCCC1 | 302 nM
COc1ccc(NC(=O)C2c3ccccc3C(=O)N(C3CCCC3)C2c2cccs2)cc1OC (stereo not drawn) | 1090 nM
CCOc1cc(C2C(C(=O)OC(C)C)=C(C)NC3=C2C(=O)CC(c2ccc(Cl)cc2)C3)ccc1OC(C)=O (stereo not drawn) | 932 nM
COc1ccccc1N=C1SC(=Cc2cn(CC(=O)N3CCCc4ccccc43)c3ccccc23)C(=O)N1C1CCCCC1 | 28.9 nM
O=C(C=Cc1ccc(F)cc1)N1CCN(S(=O)(=O)c2ccc(Cl)cc2)CC1 | 634 nM
O=C(NC1CCCCN(Cc2ccccc2O)C1)c1ccc(-c2ccccc2)cc1 (stereo not drawn) | 759 nM
O=C(/C=C/c1cc(F)cc(C(F)(F)F)c1)N1CCC(CN2CCC(c3c[nH]c4ccccc34)CC2)CC1 | 756 nM
Cc1ccc(Cn2c(N3CCC(C(=O)NCc4ccccn4)CC3)nc3ccccc32)cc1 | 408 nM
CCOc1cc(C(=O)NC2CCN(Cc3ccccc3)CC2)ccc1-c1nc2cc(Cl)ccc2[nH]1 | 430 nM
CC(CN1CCN(C)CC1)C(=O)Nc1ccc(-c2cccc(-c3nc4cc(C(F)(F)F)ccc4[nH]3)c2)cc1 (stereo not drawn) | 403 nM
CC1CCC(C[C@@H](C(=O)N[C@@H](CCC(=O)N2CCCCC2)C(=O)Nc2nccs2)[C@H](C(C)C)N(O)C=O)CC1 (stereo partly drawn) | 615 nM
Cn1cc(C2CCN(CCCCNC(=O)c3ccc(C(=O)Nc4ccc(C#N)cc4)cc3)CC2)c2ccccc21 | 724 nM
COc1ccc(CN2CCCC(N3CC4(OC3=O)c3ccccc3-c3ccccc34)C2)c(O)c1 (stereo not drawn) | 873 nM
CCCCC(CC)C(=O)C(NC(=O)[C@H](CSC(c1ccccc1)(c1ccccc1)c1ccccc1)NC(=O)OC(C)(C)C)C(=O)OC (stereo partly drawn) | 1020 nM
O=S(=O)(NCCN1CCCC1)c1ccc(-c2cccc(CNCc3ccc(F)cc3)c2)cc1 | 729 nM
Cc1cc(NC(=O)NCCN2CCC(NS(=O)(=O)c3ccccc3Cl)C2)c2ccccc2n1 (stereo not drawn) | 815 nM
COc1ccc(-c2nc(NC(=O)Cc3ccc(OC)c(OC)c3)sc2C)cc1 | 1160 nM
CCC1(C)CC(CCNCc2ccccc2O)(c2ccccc2OC)CCO1 (stereo not drawn) | 721 nM
CCCNC(=O)c1cncc(-c2cccc(CNC3Cc4ccccc4C3)c2)c1 | 803 nM
Cc1onc(-c2c(Cl)cccc2Cl)c1C(=O)NC1=NC(C)(C)ON1c1ccccc1 | 1070 nM
CCc1c(C)nc(-n2nc(C)cc2NC(=O)C(CC)c2ccccc2)[nH]c1=O (stereo not drawn) | 714 nM
CCCCOc1c(CNCCCCCCNCc2ccc3ccccc3c2OCCCC)ccc2ccccc12 | 869 nM
